Experimental data: patent US8703776B2 (Cymabay Therapeutics, Inc., priority 2011, dated 2014)

biological target: T1, human GPR131 (Homo sapiens, UniProt Q8TDU6); assay: Stimulation of cAMP in stable cell line expressing human GPR131 (FRET cAMP kit); type: cell-based; conditions: 0.5 h; 1.1 μM compound, relative to maximal stimulatory activity of lithocholic acid at 3.3 μM; 30 minutes at 37° C.; read-out: Percent Activity @ 1.1 μM (of 3.3 uM LCA) (%)
T1 construct: expressed in transfected cells
T1 sequence (Q8TDU6 1-330): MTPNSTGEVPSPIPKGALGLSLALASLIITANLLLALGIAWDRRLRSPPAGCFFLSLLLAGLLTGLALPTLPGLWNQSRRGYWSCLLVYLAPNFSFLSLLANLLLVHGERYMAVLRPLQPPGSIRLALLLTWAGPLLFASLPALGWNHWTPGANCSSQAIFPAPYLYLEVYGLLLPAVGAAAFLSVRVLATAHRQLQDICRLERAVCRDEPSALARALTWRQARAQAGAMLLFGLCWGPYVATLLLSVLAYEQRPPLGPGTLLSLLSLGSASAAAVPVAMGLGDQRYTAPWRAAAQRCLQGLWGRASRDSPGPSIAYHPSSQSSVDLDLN
Experimental: This assay was developed using a stable cell line expressing human GPR131.
To measure cAMP activity in response to GPR131 agonists, GPR131 cells suspended in DMEM/F12 medium with 1 mM IBMX were seeded in 384 well plates at 5000 cells per well. After incubating with test compounds at 37° C. for 30 minutes cAMP was measured using a fluorescene resonance energy transfer cAMP kit from Cis Bio (Bedford, Mass.) according to the manufacturer's instructions. Briefly, cells were lysed, and cAMP levels determined by competitive immunoassay using D2 labeled cAMP, and europium cryptate tagged anti cAMP antibody. Decreases in the FRET signal (fluorescence ratio (665 nm/620 […]) correspond to increases in intracellular cAMP levels.
Activities of test compounds in Table 1 below are expressed as % activity at 1.1 μM compound compared to the maximal stimulatory activity of lithocholic acid (LCA) (determined at 3.3 μM LCA)

| SMILES | activation at 1.1 µM [%] |
| --- | --- |
| Cc1nn(C)cc1CN(C)Cc1cnc(SCc2c(F)ccc(F)c2F)n1-c1ccc(F)cc1 [Compound 506, 1-(1,3-Dimethyl-1H-pyrazol-4-yl)-N-((1-(4-fluorophenyl)-2-((2,3,6-trifluorobenzyl)thio)-1H-imidazol-5-yl)methyl)-N-methylmethanamine] | 100 |
| COc1ccc(CN(C)C(=O)c2cnc(SCc3c(F)ccc(F)c3F)n2-c2ccc(F)cc2)cc1OC [Compound 507, N-(3,4-Dimethoxybenzyl)-1-(4-fluorophenyl)-N-methyl-2-((2,3,6-trifluorobenzyl)thio)-1H-imidazole-5-carboxamide] | 93 |
| Cc1nn(C)cc1CNC(=O)c1cnc(SCc2c(F)ccc(F)c2F)n1-c1ccc(F)cc1 [Compound 508, N-((1,3-Dimethyl-1H-pyrazol-4-yl)methyl)-1-(4-fluorophenyl)-2-((2,3,6-trifluorobenzyl)thio)-1H-imidazole-5-carboxamide] | 82 |
| CN(Cc1ccncc1)C(=O)c1cnc(SCc2c(F)ccc(F)c2F)n1-c1ccc(F)cc1 [Compound 518, 1-(4-Fluorophenyl)-N-methyl-N-(pyridin-4-ylmethyl)-2-((2,3,6-trifluorobenzyl)thio)-1H-imidazole-5-carboxamide] | 100 |
| CCN(Cc1cn(C)nc1C)C(=O)c1cnc(SCc2c(F)ccc(F)c2F)n1-c1ccc(F)cc1 [Compound 519, N-((1,3-Dimethyl-1H-pyrazol-4-yl)methyl)-N-ethyl-1-(4-fluorophenyl)-2-((2,3,6-trifluorobenzyl)thio)-1H-imidazole-5-carboxamide] | 100 |
| CN(Cc1cnn(C)c1)C(=O)c1cnc(SCc2c(F)ccc(F)c2F)n1-c1ccc(F)cc1 [Compound 520, 1-(4-Fluorophenyl)-N-methyl-N-((1-methyl-1H-pyrazol-4-yl)methyl)-2-((2,3,6-trifluorobenzyl)thio)-1H-imidazole-5-carboxamide] | 98 |
| Cc1nc(C)c(CN(C)C(=O)c2cnc(SCc3c(F)ccc(F)c3F)n2-c2ccc(F)cc2)s1 [Compound 522, N-((2,4-Dimethylthiazol-5-yl)methyl)-1-(4-fluorophenyl)-N-methyl-2-((2,3,6-trifluorobenzyl)thio)-1H-imidazole-5-carboxamide] | 100 |
| Cc1nn(C)cc1CN(C)C(=O)c1cnc(CCc2c(F)ccc(F)c2F)n1-c1ccc(F)cc1 [Compound 523, N-((1,3-Dimethyl-1H-pyrazol-4-yl)methyl)-1-(4-fluorophenyl)-N-methyl-2-(2,3,6-trifluorophenethyl)-1H-imidazole-5-carboxamide] | 96 |
| Cc1nn(C)cc1CN(C)C(=O)c1cnc(SCC(=O)c2ccccc2)n1-c1ccc(F)cc1 [Compound 525, N-((1,3-Dimethyl-1H-pyrazol-4-yl)methyl)-1-(4-fluorophenyl)-N-methyl-2-((2-oxo-2-phenylethyl)thio)-1H-imidazole-5-carboxamide] | 96 |
| Cc1nn(C)cc1C(C)N(C)C(=O)c1cnc(SCc2c(F)ccc(F)c2F)n1-c1ccc(F)cc1 (centres unmarked) [Compound 526, N-(1-(1,3-Dimethyl-1H-pyrazol-4-yl)ethyl)-1-(4-fluorophenyl)-N-methyl-2-((2,3,6-trifluorobenzyl)thio)-1H-imidazole-5-carboxamide] | 96 |
| CN(Cc1ccncc1)C(=O)c1cnc(CCc2c(F)ccc(F)c2F)n1-c1ccc(F)cc1 [Compound 528, 1-(4-Fluorophenyl)-N-methyl-N-(pyridin-4-ylmethyl)-2-(2,3,6-trifluorophenethyl)-1H-imidazole-5-carboxamide] | 95 |
| Fc1ccc(-n2c(COCc3ccncc3)cnc2SCc2c(F)ccc(F)c2F)cc1 [Compound 530, 4-(((1-(4-Fluorophenyl)-2-((2,3,6-trifluorobenzyl)thio)-1H-imidazol-5-yl)methoxy)methyl)pyridine] | 100 |
| Cc1nn(C)cc1CNCc1cnc(SCc2c(F)ccc(F)c2F)n1-c1ccc(F)cc1 [Compound 531, 1-(1,3-Dimethyl-1H-pyrazol-4-yl)-N-((1-(4-fluorophenyl)-2-((2,3,6-trifluorobenzyl)thio)-1H-imidazol-5-yl)methyl)methanamine] | 84 |
| Cc1nn(C)cc1CN(C)C(=O)c1cnc(SCc2c(F)cccc2Cl)n1-c1ccc(F)cc1 [Compound 532, 2-((2-Chloro-6-fluorobenzyl)thio)-N-((1,3-dimethyl-1H-pyrazol-4-yl)methyl)-1-(4-fluorophenyl)-N-methyl-1H-imidazole-5-carboxamide] | 100 |
| CN(Cc1ccncc1)C(=O)c1cnc(SCc2c(F)cccc2Cl)n1-c1ccc(F)cc1 [Compound 533, 2-((2-Chloro-6-fluorobenzyl)thio)-1-(4-fluorophenyl)-N-methyl-N-(pyridin-4-ylmethyl)-1H-imidazole-5-carboxamide] | 100 |
| CN(Cc1ccncc1)C(=O)c1cnc(CCc2ccccc2F)n1-c1ccc(F)cc1 [Compound 538, 2-(2-Fluorophenethyl)-1-(4-fluorophenyl)-N-methyl-N-(pyridin-4-ylmethyl)-1H-imidazole-5-carboxamide] | 90 |
| O=C(c1cnc(SCc2c(F)cccc2Cl)n1-c1ccc(F)cc1)N1CCCC1c1ccncc1 (centres unmarked) [Compound 539, (2-((2-Chloro-6-fluorobenzyl)thio)-1-(4-fluorophenyl)-1H-imidazol-5-yl)(2-(pyridin-4-yl)pyrrolidin-1-yl)methanone] | 95 |
| Cc1nn(C)cc1CN(C)C(=O)c1cnc(SCc2c(F)cc(C(=O)OC(C)(C)C)cc2F)n1-c1ccc(F)cc1 [Compound 542, tert-butyl 4-(((5-(((1,3-Dimethyl-1H-pyrazol-4-yl)methyl)(methyl)carbamoyl)-1-(4-fluorophenyl)-1H-imidazol-2-yl)thio)methyl)-3,5-difluorobenzoate] | 100 |
| Cc1nn(C)cc1CN(C)C(=O)c1cnc(SCc2ccccc2Cl)n1-c1ccc(F)cc1 [Compound 549, 2-((2-Chlorobenzyl)thio)-N-((1,3-dimethyl-1H-pyrazol-4-yl)methyl)-1-(4-fluorophenyl)-N-methyl-1H-imidazole-5-carboxamide] | 98 |
| Cc1cc(CN(C)C(=O)c2cnc(SCc3ccccc3Cl)n2-c2ccc(F)cc2)ccn1 [Compound 550, 2-((2-Chlorobenzyl)thio)-1-(4-fluorophenyl)-N-methyl-N-((2-methylpyridin-4-yl)methyl)-1H-imidazole-5-carboxamide] | 98 |
| Cc1nn(C)cc1CN(C)C(=O)c1cnc(SCc2ncccc2Cl)n1-c1ccc(F)cc1 [Compound 551] | 99 |
| Cc1nc(CSc2ncc(C(=O)N(C)Cc3cn(C)nc3C)n2-c2ccc(F)cc2)no1 [Compound 552, N-((1,3-Dimethyl-1H-pyrazol-4-yl)methyl)-1-(4-fluorophenyl)-N-methyl-2-(((5-methyl-1,2,4-oxadiazol-3-yl)methyl)thio)-1H-imidazole-5-carboxamide] | 99 |
| Cc1nn(C)cc1CN(C)C(=O)c1cnc(SCc2c(F)cccc2Cl)n1-c1ccc(Cl)cc1 [Compound 553, 2-((2-Chloro-6-fluorobenzyl)thio)-1-(4-chlorophenyl)-N-((1,3-dimethyl-1H-pyrazol-4-yl)methyl)-N-methyl-1H-imidazole-5-carboxamide] | 100 |
| Cc1nn(C)cc1CN(C)C(=O)c1cnc(SCc2c(F)cccc2Cl)n1-c1ccccc1 [Compound 554, 2-((2-Chloro-6-fluorobenzyl)thio)-N-((1,3-dimethyl-1H-pyrazol-4-yl)methyl)-N-methyl-1-phenyl-1H-imidazole-5-carboxamide] | 99 |
| CN(Cc1ccncc1)C(=O)c1cnc(SCc2c(F)cccc2Cl)n1-c1ccccc1 [Compound 555, 2-((2-Chloro-6-fluorobenzyl)thio)-N-methyl-1-phenyl-N-(pyridin-4-ylmethyl)-1H-imidazole-5-carboxamide] | 100 |
| CN(Cc1ccncc1)C(=O)c1cnc(SCc2c(F)cccc2Cl)n1-c1ccc(Cl)cc1 [Compound 556, 2-((2-Chloro-6-fluorobenzyl)thio)-1-(4-chlorophenyl)-N-methyl-N-(pyridin-4-ylmethyl)-1H-imidazole-5-carboxamide] | 99 |
| CN(Cc1ccncc1)C(=O)c1cnc(SCc2c(Cl)cccc2Cl)n1-c1ccc(F)cc1 [Compound 561, 2-((2,6-Dichlorobenzyl)thio)-1-(4-fluorophenyl)-N-methyl-N-(pyridin-4-ylmethyl)-1H-imidazole-5-carboxamide] | 95 |
| Cc1ccccc1CSc1ncc(C(=O)N(C)Cc2ccncc2)n1-c1ccc(F)cc1 [Compound 562, 1-(4-Fluorophenyl)-N-methyl-2-((2-methylbenzyl)thio)-N-(pyridin-4-ylmethyl)-1H-imidazole-5-carboxamide] | 82 |
| Cc1ccc(-n2c(C(=O)N(C)Cc3ccncc3)cnc2SCc2c(F)cccc2Cl)cc1 [Compound 563, 2-((2-Chloro-6-fluorobenzyl)thio)-N-methyl-N-(pyridin-4-ylmethyl)-1-(p-tolyl)-1H-imidazole-5-carboxamide] | 98 |
